Assay results as given in the supplement of paper PMC10627819.

How the values were obtained:
B. subtilis 168 [1] = assay: Bliss interaction score (quartile over a dose matrix) (fitness difference); higher = more antagonism (negative = synergy)
Outline: (§1)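 OD595 was read at entry into stationary phase and expressed relative to the robust mean of the no-drug wells on the same plate, capped at 1. The resulting ratio is the fitness value. The Bliss score, observed fitness minus product-based expected fitness with single-drug fitness inferred from combinations, is summarised by quartiles over technical, biological and donor/recipient replicates.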

S. aureus Newman [2] = assay: as above
Outline: as §1

S. aureus DSM 20231 [3] = assay: as above
Outline: as §1

S. pneumoniae D39V [4] = assay: as above
Outline: as §1

B. subtilis 168 [5] = assay: fitness (endpoint OD595 vs no drug) (fraction); higher = more growth
Outline: (§2)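 At 37 °C, bacteria in TSB, LB Lennox or CY were grown in 384-well plates from a starting OD595 of 0.01. OD595 was measured every 30 min for 14 h, with the first reading used as background. Fitness is the optical density at the switch to stationary phase as a fraction of the robust mean of no-drug control wells, capped at 1.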

S. aureus Newman [6] = assay: as above
Outline: as §2

S. aureus DSM 20231 [7] = assay: as above
Outline: as §2

S. pneumoniae D39V [8] = assay: as above
Outline: as §2
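Throughout, for Bliss interaction score (quartile over a dose matrix): first quartile when negative (synergy) and third quartile when positive (antagonism).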

Cc1ncc([N+](=O)[O-])n1CCO [Metronidazole] + CN[C@@H]1[C@H](O)[C@H](NC)[C@H]2O[C@@]3(O)C(=O)C[C@@H](C)O[C@H]3O[C@@H]2[C@H]1O [Spectinomycin]
Conditions	Bliss interaction score
B. subtilis 168 [1]	-0.0603
S. aureus DSM 20231 [3]	0.0691
S. aureus Newman [2]	0.0758
S. pneumoniae D39V [4]	0.044

fitness
Conditions	partner 2 µg/mL	partner 4 µg/mL	partner 8 µg/mL	partner 16 µg/mL
B. subtilis 168 [5], first compound 0.625 µg/mL	0.947	0.963	0.949	–
B. subtilis 168 [5], first compound 1.25 µg/mL	0.973	0.953	0.889	–
B. subtilis 168 [5], first compound 2.5 µg/mL	0.976	0.95	0.91	–
S. aureus DSM 20231 [7], first compound 0.625 µg/mL	–	0.973	0.944	0.887
S. aureus DSM 20231 [7], first compound 1.25 µg/mL	–	0.946	0.958	0.852
S. aureus DSM 20231 [7], first compound 2.5 µg/mL	–	0.976	≥ 1	0.924
S. aureus Newman [6], first compound 0.625 µg/mL	–	0.94	0.909	0.929
S. aureus Newman [6], first compound 0.781 µg/mL	–	0.893	0.974	0.91
S. aureus Newman [6], first compound 1.25 µg/mL	–	0.98	0.98	0.932
S. aureus Newman [6], first compound 1.562 µg/mL	–	0.93	0.998	0.928
S. aureus Newman [6], first compound 2.5 µg/mL	–	0.951	0.926	0.926
S. aureus Newman [6], first compound 3.124 µg/mL	–	0.895	0.98	0.935
S. pneumoniae D39V [8], first compound 1.073 µg/mL	–	0.94	0.976	0.909
S. pneumoniae D39V [8], first compound 2.145 µg/mL	–	0.946	0.944	0.881
S. pneumoniae D39V [8], first compound 4.29 µg/mL	–	0.901	0.9	0.878

fitness, one replicate
Conditions	first compound 0.625 µg/mL	first compound 1.25 µg/mL	first compound 2.5 µg/mL	first compound 5 µg/mL
S. aureus DSM 20231 [7], partner 32 µg/mL	0.703	0.684	0.689	–
S. aureus DSM 20231 [7], partner 64 µg/mL	0.0868	0.121	0.103	–
S. aureus Newman [6], partner 32 µg/mL	0.685	0.656	0.596	–
S. aureus Newman [6], partner 64 µg/mL	0.101	0.147	0.134	–
S. pneumoniae D39V [8], partner 4 µg/mL	–	≥ 1	≥ 1	≥ 1
S. pneumoniae D39V [8], partner 8 µg/mL	–	0.964	0.99	0.986

COc1ccc(C[C@H](N)C(=O)N[C@H]2[C@@H](O)[C@H](n3cnc4c(N(C)C)ncnc43)O[C@@H]2CO)cc1 [Puromycin] + CN1C2=CC=CC=C2N=C3C1=CC=CC3=O [Pyocyanin]
Conditions	Bliss interaction score
B. subtilis 168 [1]	-0.0765
S. aureus DSM 20231 [3]	0.0671
S. aureus Newman [2]	0.104
S. pneumoniae D39V [4]	-0.117

fitness
Conditions	first compound 0.39 µg/mL	first compound 0.78 µg/mL	first compound 1 µg/mL	first compound 1.56 µg/mL	first compound 2 µg/mL	first compound 4 µg/mL
B. subtilis 168 [5], partner 1.25 µg/mL	0.879	0.847	–	0.89	–	–
B. subtilis 168 [5], partner 2.5 µg/mL	0.875	0.812	–	0.823	–	–
B. subtilis 168 [5], partner 5 µg/mL	0.679	0.666	–	0.656	–	–
S. aureus DSM 20231 [7], partner 1.25 µg/mL	0.86	0.945	–	≥ 1	–	–
S. aureus DSM 20231 [7], partner 2.5 µg/mL	0.96	0.957	–	0.967	–	–
S. aureus DSM 20231 [7], partner 5 µg/mL	0.67	0.725	–	0.681	–	–
S. aureus Newman [6], partner 1.25 µg/mL	0.907	0.902	–	0.918	–	–
S. aureus Newman [6], partner 2.5 µg/mL	0.785	0.824	–	0.845	–	–
S. aureus Newman [6], partner 5 µg/mL	0.476	0.44	–	0.417	–	–
S. pneumoniae D39V [8], partner 0.325 µg/mL	–	–	0.977	–	0.975	0.792
S. pneumoniae D39V [8], partner 0.65 µg/mL	–	–	0.926	–	0.866	0.697

one replicate
Conditions	fitness
S. aureus DSM 20231 [7], first compound 3.12 µg/mL, partner 1.25 µg/mL	0.946
S. aureus DSM 20231 [7], first compound 3.12 µg/mL, partner 2.5 µg/mL	0.844
S. aureus DSM 20231 [7], first compound 3.12 µg/mL, partner 5 µg/mL	0.482
S. aureus DSM 20231 [7], first compound 6.24 µg/mL, partner 1.25 µg/mL	0.756
S. aureus DSM 20231 [7], first compound 6.24 µg/mL, partner 2.5 µg/mL	0.632
S. aureus DSM 20231 [7], first compound 6.24 µg/mL, partner 5 µg/mL	0.248
S. pneumoniae D39V [8], first compound 1 µg/mL, partner 1.3 µg/mL	0.394
S. pneumoniae D39V [8], first compound 2 µg/mL, partner 1.3 µg/mL	0.34
S. pneumoniae D39V [8], first compound 4 µg/mL, partner 1.3 µg/mL	0.294
